From patent US8993566B2, “Quinoline compound composing 1,2,4-triazine-dione and use thereof” (Wuhan Shengyun Biopharma Co., Ltd., priority 2012, dated 2015)
≈ marks a conversion by molar mass, not a printed value. Read-outs that look alike come from different tables or passages of the source.

Experiments:
[1] = system: human nonsmall-cell lung cancer cell H460; assay: In vitro anti-tumor cell activity (MTT), H460; format: cell-based; settings: for IC50: Homo sapiens, read-out: H460 IC50
Description: (§1) The digested cell solution was poured into a centrifuge tube, to which a culture media was added to stop the digestion. The centrifuge tube was centrifuged at 800 r/min for 10 min, the supernatant was removed gently and then 5 mL of the culture media was added. The cells were pipetted and mixed homogeneously. 10 μL cell suspension was taken into a cell counting plate for counting, wherein the cell concentration was adjusted to 10^4 cells/well. To each well of a 96-well plate, except for A1 well as blank control, was added 100 μL of the cell suspension. The 96-well plate was placed in an incubator and cultivated for 24 h. […] The 96-well plate was placed in an incubator and cultivated for 72 h. (3) The culture media containing the compounds in the 96-well plate was removed, and the cells were washed with phosphate buffered solution (PBS) twice. To each well was added 100 μL MTT (tetrazole) (0.5 mg/mL), after placing the plate in an incubator to incubate for 4 h, the MTT solution was removed and 100 μL dimethyl sulfoxide was added. The reaction product of survival cells with MTT, i.e. formazan, was dissolved completely by oscillation on a magnetic oscillator, and then placed into a microplate reader to measure the results, and the IC50 values of compounds could be deduced by Bliss method.

[2] = system: human colon cancer cell HT-29; assay: In vitro anti-tumor cell activity (MTT), HT-29; format: cell-based; settings: for IC50: Homo sapiens, read-out: HT-29 IC50
Description: as §1

[3] = system: human gastric cancer cell MKN-45; assay: In vitro anti-tumor cell activity (MTT), MKN-45; format: cell-based; settings: for IC50: Homo sapiens, read-out: MKN-45 IC50
Description: as §1

[4] = system: human hepatoma carcinoma cell line SMMC-7721; assay: In vitro anti-tumor cell activity (MTT), SMMC-7721; format: cell-based; settings: for IC50: Homo sapiens, read-out: SMMC-7721 IC50
Description: as §1

[5] = target: T1, c-Met kinase (His-tagged recombinant human Met (amino acids 974-end)) (Homo sapiens, UniProt P08581); assay: c-Met Enzyme Activity Inhibition Assay (ELISA); format: biochemical; settings: 50 pM c-Met, 5 μM ATP, room temperature 20 min; for IC50: read-out: IC50 for inhibiting c-Met kinase (converted)
T1 construct: His-tagged recombinant human Met (amino acids 974-end); His
Description: c-Met Enzyme Activity Inhibition Assay
The assay for the determination of c-Met kinase activity is based on an enzyme linked immunosorbant assay (ELISA). A compound of Formula I, 50 pM c-Met (His-tagged recombinant human Met (amino acids 974-end), expressed by baculovirus), and 5 μM ATP in an assay buffer (25 mM MOPS, pH 7.4, 5 mM MgCl2, […], 100 μM sodium orthovanadate, 0.01% Triton X-100, 1 mM DTT, final DMSO concentration 1% (v/v)) were incubated on a plate coated with 0.25 mg/mL POT at room temperature for 20 min. The reaction mixture was removed by washing and the phosphorylated polymer substrate was detected with 0.2 μg/mL phosphotyrosine specific monoclonal antibody (PY20) conjugated to horseradish peroxidase (HRP). After the addition of 1M phosphoric acid to stop the development, the chromogenic substrate (TMB) color was quantitated by spectrophotometry at 450 nm.

[6] = NCI-H460, H460 cells, MTT, 72 h, Bliss method
[7] = HT-29 cells, MTT, 72 h, Bliss method
[8] = MKN-45 cells, MTT, 72 h, Bliss method
[9] = SMMC-7721 cells, MTT, 72 h, Bliss method
[10] = H460 cells, MTT, 72 h, Bliss method

T1 sequence (P08581 956-1390): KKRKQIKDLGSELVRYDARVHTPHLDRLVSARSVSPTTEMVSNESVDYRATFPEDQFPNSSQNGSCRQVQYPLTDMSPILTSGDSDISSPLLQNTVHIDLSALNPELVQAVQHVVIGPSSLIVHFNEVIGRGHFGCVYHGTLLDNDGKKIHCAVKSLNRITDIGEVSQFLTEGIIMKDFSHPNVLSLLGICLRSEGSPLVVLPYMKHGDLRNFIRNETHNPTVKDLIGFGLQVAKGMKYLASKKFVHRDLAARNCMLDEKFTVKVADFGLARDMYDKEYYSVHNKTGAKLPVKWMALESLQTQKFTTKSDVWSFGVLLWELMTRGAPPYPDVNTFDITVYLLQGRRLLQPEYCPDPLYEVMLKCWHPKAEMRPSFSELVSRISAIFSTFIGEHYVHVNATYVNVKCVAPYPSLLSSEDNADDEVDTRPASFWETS

Compound | IC50 [5] | IC50 [1, 6] | IC50 [2, 7] | IC50 [3, 8] | IC50 [4, 9] | H460 IC50 [1, 10] | HT-29 IC50 [2, 7] | SMMC-7721 IC50 [4, 9] | IC50 for inhibiting c-Met kinase [5] | other results
COc1cc2c(Oc3ccc(NC(=O)c4nn(-c5ccccc5)c(=O)n(C)c4=O)cc3F)ccnc2cc1OCCCN1CCCC1 [Example 1, N-[3-fluoro-4-[6-methoxy-7-[3-(tetrahydropyrrol-1-yl)propyloxy]quinolin-4-oxy]phenyl]-2-phenyl-4-methyl-3,5-dioxo-2,3,4,5-tetrahydro-1,2,4-triazine-6-carboxamide] | 71.8 nM |  |  |  |  |  |  |  |  | IC50 ([1]; NCI-H460, 72 h): 0.26 µg/mL (≈ 0.406 µM); IC50 ([2]; HT-29, 72 h): 0.12 µg/mL (≈ 0.187 µM); IC50 ([3]; MKN-45, 72 h): 0.042 µg/mL (≈ 0.0656 µM); IC50 ([4]; SMMC-7721, 72 h): 0.18 µg/mL (≈ 0.281 µM)
COc1cc2c(Oc3ccc(NC(=O)c4nn(-c5ccccc5)c(=O)n(C)c4=O)cc3F)ccnc2cc1OCCCN1CCN(C)CC1 [Example 5, N-[3-fluoro-4-[6-methoxy-7-[3-(4-methyl-1-piperazinyl)propyloxy]oxy]phenyl)-2-phenyl-4-methyl-3,5-dioxo-2,3,4,5-tetrahydro-1,2,4-triazine-6-carboxamide] |  |  |  |  |  | 0.094 µg/mL | 0.12 µg/mL | 0.15 µg/mL | 0.28 µg/mL | MKN-45 IC50 [3, 8]: 0.12 µg/mL
COc1cc2c(Oc3ccc(NC(=O)c4nn(-c5ccc(Br)cc5)c(=O)n(C)c4=O)cc3F)ccnc2cc1OCCCN1CCCCC1 [Example 7] |  |  |  |  |  | 0.13 µg/mL | 0.27 µg/mL | 0.21 µg/mL | 0.048 µg/mL | MKN-45 IC50 [3, 8]: 0.033 µg/mL
COc1cc2c(Oc3ccc(NC(=O)c4nn(-c5ccc(C)cc5)c(=O)n(C)c4=O)cc3F)ccnc2cc1OCCCN1CCN(C)CC1 [Example 15, N-[3-fluoro-4-[6-methoxy-7-[3-(4-methyl-1-piperazinyl)propyloxy]quinolin-4-oxy]phenyl]-2-(4-methylphenyl)-4-methyl-3,5-dicarbonyl-2,3,4,5-tetrahydro-1,2,4-triazine-6-carboxamide;] |  |  |  |  |  | 0.18 µg/mL | 0.5 µg/mL | 0.79 µg/mL | 0.009 µg/mL | 
N-[3-fluoro-4-[6-methoxy-7-[3-(1-piperidinyl)propyloxy]quinolin-4-oxy]phenyl]-2-(4-methylphenyl)-4-methyl-3,5-dicarbonyl-2,3,4,5-tetrahydro-1,2,4-triazine-6-carboxamide [Example 12] |  |  |  |  |  | 0.12 µg/mL | 0.11 µg/mL | 0.74 µg/mL | 0.18 µg/mL | 
N-[3-fluoro-4-[6-methoxy-7-[3-(1-piperidinyl)propyloxy]quinolin]-4-oxy]phenyl]-2-phenyl-4-benzyl-3,5-dicarbonyl-2,3,4,5-tetrahydro-1,2,4-triazine-6-carboxamide [Example 46] |  |  |  |  |  | 0.8 µg/mL | 0.3 µg/mL | 1.4 µg/mL |  | MKN-45 IC50 [3, 8]: 0.1 µg/mL
N-[3-fluoro-4-[6-methoxy-7-[3-(4-morpholinyl)propyloxy]quinolin-4-oxy]phenyl]-2-(4-methylphenyl)-4-methyl-3,5-dicarbonyl-2,3,4,5-tetrahydro-1,2,4-triazine-6-carboxamide [Example 13] |  |  |  |  |  | 0.28 µg/mL | 0.19 µg/mL | 0.67 µg/mL | 0.25 µg/mL | 
N-[3-fluoro-4-[6-methoxy-7-[3-(4-morpholinyl)propyloxy]quinolin]-4-oxy]phenyl]-2-(2,4-dichlorophenyl)-4-benzyl-3,5-dicarbonyl-2,3,4,5-tetrahydro-1,2,4-triazine-6-carboxamide [Example 43] |  |  |  |  |  | 0.65 µg/mL | 0.32 µg/mL | 1.4 µg/mL |  | MKN-45 IC50 [3, 8]: 0.07 µg/mL

Second part, led by results:

IC50 [5] | IC50 [1, 6] | IC50 [2, 7] | IC50 [3, 8] | IC50 [4, 9] | Compound | H460 IC50 [1, 10] | HT-29 IC50 [2, 7] | SMMC-7721 IC50 [4, 9] | IC50 for inhibiting c-Met kinase [5] | other results
88.3 nM | 0.17 µg/mL (≈ 0.259 µM) | 0.14 µg/mL (≈ 0.213 µM) | 0.059 µg/mL (≈ 0.0898 µM) | 0.1 µg/mL (≈ 0.152 µM) | COc1cc2c(Oc3ccc(NC(=O)c4nn(-c5ccccc5)c(=O)n(C)c4=O)cc3F)ccnc2cc1OCCCN1CCOCC1 [Example 3, N-[3-fluoro-4-[6-methoxy-7-[3-(4-morpholinyl)propyloxy]quinolin-4-oxy]phenyl]-2-phenyl-4-methyl-3,5-dioxo-2,3,4,5-tetrahydro-1,2,4-triazine-6-carboxamide] |  |  |  |  | 
48.6 nM | 0.032 µg/mL (≈ 0.0486 µM) | 0.06 µg/mL (≈ 0.0911 µM) | 0.021 µg/mL (≈ 0.0319 µM) | 0.11 µg/mL (≈ 0.167 µM) | COc1cc2c(Oc3ccc(NC(=O)c4nn(-c5ccc(F)cc5)c(=O)n(C)c4=O)cc3F)ccnc2cc1OCCCN1CCCC1 [Example 6, N-[3-fluoro-4-[6-methoxy-7-[3-(1-pyrrolidyl]propyloxy]quinolin-4-oxy]phenyl]-2-(4-fluorophenyl)-4-methyl-3,5-dioxo-2,3,4,5-tetrahydro-1,2,4-triazine-6-carboxamide] |  |  |  |  | 
623 nM | 0.33 µg/mL (≈ 0.489 µM) | 0.28 µg/mL (≈ 0.415 µM) | 0.077 µg/mL (≈ 0.114 µM) | 0.42 µg/mL (≈ 0.623 µM) | COc1cc2c(Oc3ccc(NC(=O)c4nn(-c5ccc(F)cc5)c(=O)n(C)c4=O)cc3F)ccnc2cc1OCCCN1CCOCC1 [Example 8, N-[3-fluoro-4-[6-methoxy-7-[3-(4-morpholinyl)propyloxy]quinolin-4-oxy]phenyl]-2-(4-fluorophenyl)-4-methyl-3,5-dioxo-2,3,4,5-tetrahydro-1,2,4-triazine-6-carboxamide] |  |  |  |  | 
233 nM | 0.17 µg/mL (≈ 0.248 µM) | 0.21 µg/mL (≈ 0.306 µM) | 0.065 µg/mL (≈ 0.0947 µM) | 0.09 µg/mL (≈ 0.131 µM) | COc1cc2c(Oc3ccc(NC(=O)c4nn(-c5ccc(F)cc5)c(=O)n(C)c4=O)cc3F)ccnc2cc1OCCCN1CCC(C)CC1 [Example 9, N-[3-fluoro-4-[6-methoxy-7-[3-(4-methyl-1-piperidinyl)propyloxy]quinolin-4-oxy]phenyl]-2-(4-fluorophenyl)-4-methyl-3,5-dioxo-2,3,4,5-tetrahydro-1,2,4-triazine-6-carboxamide] |  |  |  |  | 
106 nM | 0.0081 µg/mL (≈ 0.0118 µM) | 0.093 µg/mL (≈ 0.135 µM) | 0.0065 µg/mL (≈ 0.00945 µM) | 0.11 µg/mL (≈ 0.16 µM) | COc1cc2c(Oc3ccc(NC(=O)c4nn(-c5ccc(F)cc5)c(=O)n(C)c4=O)cc3F)ccnc2cc1OCCCN1CCN(C)CC1 [Example 10, N-[3-fluoro-4-[6-methoxy-7-[3-(4-methyl-1-piperazinyl)propyloxy]quinolin-4-oxy]phenyl]-2-(4-fluorophenyl)-4-methyl-3,5-dioxo-2,3,4,5-tetrahydro-1,2,4-triazine-6-carboxamide] |  |  |  |  | 
783 nM | 0.22 µg/mL (≈ 0.325 µM) | 0.3 µg/mL (≈ 0.443 µM) | 0.027 µg/mL (≈ 0.0399 µM) | 0.34 µg/mL (≈ 0.502 µM) | COc1cc2c(Oc3ccc(NC(=O)c4nn(-c5ccc(F)c(F)c5)c(=O)n(C)c4=O)cc3F)ccnc2cc1OCCCN1CCCC1 [Example 16, N-[3-fluoro-4-[6-methoxy-7-[3-(1-pyrrolidyl)propyloxy]quinolin-4-oxy]phenyl]-2-(3,4-difluorophenyl)-4-methyl-3,5-dioxo-2,3,4,5-tetrahydro-1,2,4-triazine-6-carboxamide] |  |  |  |  | 
420 nM | 0.22 µg/mL (≈ 0.319 µM) | 0.3 µg/mL (≈ 0.434 µM) | 0.027 µg/mL (≈ 0.0391 µM) | 0.19 µg/mL (≈ 0.275 µM) | COc1cc2c(Oc3ccc(NC(=O)c4nn(-c5ccc(F)c(F)c5)c(=O)n(C)c4=O)cc3F)ccnc2cc1OCCCN1CCCCC1 [Example 17, N-[3-fluoro-4-[6-methoxy-7-[3-(1-piperidinyl)propyloxy]quinolin-4-oxy]phenyl]-2-(3,4-difluorophenyl)-4-methyl-3,5-dioxo-2,3,4,5-tetrahydro-1,2,4-triazine-6-carboxamide] |  |  |  |  | 
